PubChem BioAssay (NCI)
Several values for one entry are separate records, joined by “and”; a condition that tells them apart may be missing. Equal entries are not always repeated.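 All cell lines were grown in 96-well plates and treated with compound for 48 hours. GI50 is the concentration that inhibits growth by half. Definition used: TGI = concentration required for complete inhibition of growth.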

Tests used:
Assay in all cases: inhibition of tumour cell growth, NCI panel, 48 h
[1] = tested on: KM12 colon
[2] = tested on: M14 melanoma
[3] = tested on: NCI-H460 lung
[4] = tested on: SF-539 CNS
[5] = tested on: SK-MEL-2 melanoma
[6] = tested on: SNB-19 CNS
[7] = tested on: SNB-75 CNS
[8] = tested on: SW-620 colon
[9] = tested on: T-47D breast
[10] = tested on: UACC-257 melanoma

SMILES | TGI [1] | TGI [2] | TGI [3] | TGI [4] | TGI [5] | TGI [6] | TGI [7] | TGI [8] | TGI [9] | TGI [10] | GI50 [1] | GI50 [2] | GI50 [3] | GI50 [4] | GI50 [5] | GI50 [6] [µM] | GI50 [7] [µM] | GI50 [8] [µM] | GI50 [9] [µM] | GI50 [10]
Fc1ccccc1CN1COc2c(cc(Cl)c3cccnc23)C1 | 12.1 µM | 12 µM | > 100 µM | 10.6 µM | 19.1 µM | 9.23 µM | 14.7 µM | 18.4 µM | 18.4 µM | 8.73 µM | – | – | – | – | – | – | – | – | – | –
O=C(Nc1ccn(C2CC(O)C(COC(c3ccccc3)(c3ccccc3)c3ccccc3)O2)c(=O)n1)c1ccccc1 (stereo not drawn) | 17.9 µM | 4.57 µM | 4.31 µM | 8.49 µM | 7.25 µM | 14.2 µM | 9.05 µM | 5.46 µM | 16.7 µM | 28.3 µM | – | – | – | – | – | – | – | – | – | –
[Br][Pb]([c]1ccccc1)([c]1ccccc1)[c]1ccccc1 | 1.21 µM | 0.409 µM | 0.895 µM | 0.596 µM | 0.539 µM | 0.527 µM | 0.389 µM | 0.3 µM | 0.318 µM | 0.43 µM | 0.356 µM | 0.195 µM | 0.292 µM | 0.252 µM | 0.218 µM | 0.221 | 0.0993 | 0.163 | 0.143 | 0.193 µM
CC[C@H](C)[C@H](NC(=O)C12C3C4C1C1C2C3C41NC)C(=O)N(C)[C@H](C[C@@H](OC(C)=O)c1nc(C(=O)N[C@@H](Cc2ccccc2)C[C@H](C)C(=O)OC)cs1)C(C)C (stereo partly drawn) | > 14.3 µM | 5.54 µM | > 14.3 µM | > 6.08 µM | > 14.3 µM | > 14.3 µM | > 14.3 µM | > 14.3 µM | > 14.3 µM | > 14.3 µM | 0.517 µM | 0.42 µM | 0.617 µM | 0.546 µM | 0.223 µM | 0.701 | 0.319 | 0.459 | > 14.3 | 0.655 µM
COC(=O)[C@@]12OC[C@]34[C@H]([C@@H](O)[C@@H]1O)[C@@]1(C)CC(=O)C(O)=C(C)[C@@H]1C[C@H]3OC(=O)[C@H](OC(=O)/C=C(\C)C(C)C)[C@@H]24 | 0.03 µM and 0.146 µM and 0.0574 µM | 0.0109 µM | 0.00567 µM and 0.0435 µM | 0.00611 µM and 0.0234 µM | 0.0195 µM and 0.0303 µM | 0.0214 µM and 0.145 µM | 0.0186 µM and 0.0203 µM | – | 0.0581 µM | 0.0316 µM and 0.0305 µM | – | – | – | – | 0.00517 µM | 0.00464 | – | – | – | –
NNc1c(C(N)=O)c2c(N)ncnc2n1C1OC(CO)C(O)C1O (stereo not drawn) | 12.4 µM | 0.0498 µM and 0.162 µM | 0.673 µM and 4.45 µM | 1.15 µM and 0.273 µM | 0.0946 µM and 0.307 µM | 8.54 µM and 18.2 µM | 1.09 µM and 0.448 µM | 0.992 µM and 0.241 µM | 0.104 µM and 0.14 µM | 0.254 µM and 1.37 µM | 0.0453 µM and 0.0475 µM | < 0.0127 µM and 0.0188 µM | 0.0197 µM and 0.14 µM | 0.0529 µM and 0.0718 µM | 0.0273 µM and 0.0256 µM | 0.187 | 0.106 | < 0.0124 | – | 0.0404 µM and 0.132 µM
O=C(/C=C/c1ccc(O)c(O)c1)N1CCN(c2ccc(Cl)cc2)CC1 | 26.6 µM | 47.1 µM | 21.5 µM | 21.1 µM | 31.9 µM | 98.1 µM | 30.2 µM | 81.4 µM | 77 µM | 50 µM | 7.65 µM | 8.98 µM | 4.79 µM | 4.4 µM | 12.1 µM | 5.17 | 2.93 | 7.28 | 5.57 | 7.72 µM
Cc1cc(N2CCC(N3CCCC3)CC2)nc(/N=C(\N)Nc2ccc(Cl)c(Cl)c2)n1 | 3.64 µM | 3.67 µM | 3.67 µM | 3.54 µM | 3.85 µM | 5.63 µM | 3.12 µM | 3.24 µM | 3.59 µM | 3.54 µM | 1.72 µM | 1.81 µM | 1.89 µM | 1.72 µM | 2.11 µM | 2.14 | 1.58 | 1.57 | 1.92 | 1.92 µM
Cc1cc(C)c2nc3c(c(C(O)C4CCCCN4)c2c1)CC/C3=C\c1ccc(Cl)cc1 (stereo not drawn) | > 100 µM | > 100 µM | > 100 µM | > 100 µM | > 100 µM | > 100 µM | > 100 µM | > 100 µM | > 100 µM | > 100 µM | – | – | – | – | – | – | – | – | – | –
Cc1ccc(-c2nc(NCCOCCOCCN)nc(N3CCN(c4ccccn4)CC3)n2)cc1 | 32.9 µM | 11.9 µM | 29.9 µM | 35.1 µM | 35.9 µM | 34.9 µM | 27.4 µM | 29.2 µM | 29.1 µM | 15.5 µM | 16.6 µM | 5.52 µM | 13.9 µM | 16.8 µM | 18 µM | 16.9 | 13.9 | 11 | 13.7 | 6.85 µM
CNC(=O)CCN1CCN(CC/C=C2\c3ccccc3Sc3ccc(Cl)cc32)CC1 | 23.5 µM | 4.4 µM | 21.6 µM | 25.6 µM | 32.4 µM | 30.7 µM | 23.1 µM | 23.6 µM | 26.5 µM | 3.06 µM | 7.53 µM | 2.1 µM | 7.02 µM | 12.5 µM | 14.1 µM | 16 | 7.43 | 9.18 | 9.21 | 1.53 µM
NC(=NCCCCCCN=C(N)/N=C(\N)Nc1ccc(Cl)cc1)/N=C(\N)Nc1ccc(Cl)cc1 | 1.74 µM | 6 µM | 1.92 µM | 3.98 µM | 3.18 µM | 5.97 µM | 2.92 µM | 5.15 µM | 7.72 µM | 7.93 µM | 0.927 µM | 1.71 µM | 0.929 µM | 1.62 µM | 1.31 µM | 1.46 | 1.03 | 1.54 | 1.71 | 2.01 µM
CC1(C)CC(O)CC(C)(C)N1O | > 100 µM | > 100 µM | > 100 µM | > 100 µM | > 100 µM | > 100 µM | > 100 µM | > 100 µM | > 100 µM | > 100 µM | – | – | – | – | – | – | – | – | – | –
COc1cc(C2CC(c3ccccc3)=NN2C=O)ccc1Oc1ccnc2cc(Cl)ccc12 (stereo not drawn) | > 100 µM | > 100 µM | > 100 µM | 77.9 µM | 38.6 µM | > 100 µM | 21 µM | > 100 µM | 39.7 µM | – | > 100 µM | 5.83 µM | 18.5 µM | 10.3 µM | 8.68 µM | 26.6 | 3.31 | > 100 | 10.3 | –
